24 molecules from US12570642B2, “GLP-IR modulating compounds” (Gilead Sciences, Inc., priority 2021, dated 2026) can be followed below.

One may read the EC50 as the concentration at which the effect is half-maximal. Lower therefore signals an effect from little substance.

Chain of GLP-1R (P43220 24-463): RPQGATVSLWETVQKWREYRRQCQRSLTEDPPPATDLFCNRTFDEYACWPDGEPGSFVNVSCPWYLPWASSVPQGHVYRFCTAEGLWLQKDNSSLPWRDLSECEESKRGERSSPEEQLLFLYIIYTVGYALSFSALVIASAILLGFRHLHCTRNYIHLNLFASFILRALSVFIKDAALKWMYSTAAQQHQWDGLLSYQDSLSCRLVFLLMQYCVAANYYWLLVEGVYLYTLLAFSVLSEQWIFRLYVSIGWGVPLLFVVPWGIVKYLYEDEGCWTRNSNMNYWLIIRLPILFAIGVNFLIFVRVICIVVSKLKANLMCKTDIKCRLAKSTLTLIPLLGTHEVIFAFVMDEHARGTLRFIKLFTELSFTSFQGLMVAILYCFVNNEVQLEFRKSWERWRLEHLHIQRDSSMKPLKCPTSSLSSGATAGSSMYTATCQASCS

The assay deals with GLP-1R (Homo sapiens, UniProt P43220). Briefly: GLP-1R Activation - cAMP Assay. In kind it is cell-based. Particulars: cAMP increase in CHO cells stably expressing GLP-1R; each compound run on one of the two cAMP assays (Assay 1 or Assay 2, not specified). In short, it runs like this:
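cAMP rise read by HTRF after 30 min agonist exposure (10-point titration, 37 °C) in HBSS/20 mM Hepes/0.1% BSA, following 1 h pre-incubation. Cells: stable GLP-1R CHO line, 1,000/well, seeded overnight. Sigmoidal fit of response vs log concentration gives EC50.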
`CO[C@H](C)Cn1c(Cc2cc(F)c(-c3cccc(OCc4ccc(C#N)cc4)n3)cc2F)nc2c(F)cc(C(=O)O)cc21` [Example 381, (R)-2-(4-(6-((4-cyanobenzyl)oxy)pyridin-2-yl)-2,5-difluorobenzyl)-4-fluoro-1-(2-methoxypropyl)-1H-benzo[d]imidazole-6-carboxylic acid] returned an EC50 of 0.267 nM.
`COCCn1c(Cc2cc(F)c(-c3cccc(OCc4ccc(C#N)cc4)n3)cc2F)nc2c(F)cc(C(=O)O)cc21` [Example 382, 2-(4-(6-((4-cyanobenzyl)oxy)pyridin-2-yl)-2,5-difluorobenzyl)-4-fluoro-1-(2-methoxyethyl)-1H-benzo[d]imidazole-6-carboxylic acid] yielded a concentration giving a half-maximal response (EC50) of 0.604 nM.
The molecule `CC1(C)COCC1n1c(Cc2ccc(-c3cccc(OCc4ccc(C#N)cc4F)n3)cc2F)nc2ccc(C(=O)O)cc21` (stereo not drawn) [Example 384, 2-(4-(6-((4-cyano-2-fluorobenzyl)oxy)pyridin-2-yl)-2-fluorobenzyl)-1-(4,4-dimethyltetrahydrofuran-3-yl)-1H-benzo[d]imidazole-6-carboxylic acid] yielded a concentration giving a half-maximal response (EC50) of 0.205 nM.
Turning to `COCCn1c(Cc2cc(F)c(-c3cccc(OCc4ccc(Cl)cc4)n3)cc2F)nc2c(F)cc(C(=O)O)cc21` [Example 386, 2-(4-(6-((4-chlorobenzyl)oxy)pyridin-2-yl)-2,5-difluorobenzyl)-4-fluoro-1-(2-methoxyethyl)-1H-benzo[d]imidazole-6-carboxylic acid], the concentration for a half-maximal effect (EC50) worked out at 0.093 nM.
With `CC1(C)COCC1n1c(Cc2cc(F)c(-c3cccc(OCc4ccc(Cl)cc4)n3)cc2F)nc2ccc(C(=O)O)cc21` (stereo not drawn) [Example 387, 2-(4-(6-((4-chlorobenzyl)oxy)pyridin-2-yl)-2,5-difluorobenzyl)-1-(4,4-dimethyltetrahydrofuran-3-yl)-1H-benzo[d]imidazole-6-carboxylic acid] the figure was 0.043 nM; with `CC1(C)COC[C@H]1n1c(Cc2cc(F)c(-c3ccc(F)c(OCc4cnc(-n5ccnn5)cc4Cl)c3)cc2F)nc2ccc(C(=O)O)cc21` [Example 388, (S)-2-((3′-((4-chloro-6-(1H-1,2,3-triazol-1-yl)pyridin-3-yl)methoxy)-2,4′,5-trifluoro-[1,1′-biphenyl]-4-yl)methyl)-1-(4,4-dimethyltetrahydrofuran-3-yl)-1H-benzo[d]imidazole-6-carboxylic acid], 0.053 nM.
The same measure for `COCCn1c(Cc2cc(F)c(-c3ccnc(OCc4cnc(-n5ccnn5)cc4Cl)n3)cc2F)nc2ccc(C(=O)O)cc21` [Example 389, 2-(4-(2-((4-chloro-6-(1H-1,2,3-triazol-1-yl)pyridin-3-yl)methoxy)pyrimidin-4-yl)-2,5-difluorobenzyl)-1-(2-methoxyethyl)-1H-benzo[d]imidazole-6-carboxylic acid]: 0.55 nM; for `COCCn1c(Cc2cc(F)c(-c3ccc(F)c(OCc4cnc(-n5ccnn5)cc4Cl)c3)cc2F)nc2ccc(C(=O)O)cc21` [Example 390, 2-((3′-((4-chloro-6-(1H-1,2,3-triazol-1-yl)pyridin-3-yl)methoxy)-2,4′,5-trifluoro-[1,1′-biphenyl]-4-yl)methyl)-1-(2-methoxyethyl)-1H-benzo[d]imidazole-6-carboxylic acid]: 3.12 nM; for `COCCn1c(Cc2c(F)cc(-c3cccc(OCc4cnc(-n5ccnn5)cc4Cl)n3)c(F)c2F)nc2ccc(C(=O)O)cc21` [Example 391, 2-(4-(6-((4-chloro-6-(1H-1,2,3-triazol-1-yl)pyridin-3-yl)methoxy)pyridin-2-yl)-2,3,6-trifluorobenzyl)-1-(2-methoxyethyl)-1H-benzo[d]imidazole-6-carboxylic acid]: 0.107 nM.
The same measure for `COCCn1c(Cc2c(F)cc(-c3ccc(F)c(OCc4cnc(-n5ccnn5)cc4Cl)n3)c(F)c2F)nc2ccc(C(=O)O)cc21` [Example 392, 2-(4-(6-((4-chloro-6-(1H-1,2,3-triazol-1-yl)pyridin-3-yl)methoxy)-5-fluoropyridin-2-yl)-2,3,6-trifluorobenzyl)-1-(2-methoxyethyl)-1H-benzo[d]imidazole-6-carboxylic acid]: 0.036 nM.
In turn, `CC1(C)COC[C@H]1n1c(Cc2cc(F)c(-c3cccc(OCc4ccc(Cl)c(Cl)c4)n3)cc2F)nc2ccc(C(=O)O)cc21` [Example 393, (S)-2-(4-(6-((3,4-dichlorobenzyl)oxy)pyridin-2-yl)-2,5-difluorobenzyl)-1-(4,4-dimethyltetrahydrofuran-3-yl)-1H-benzo[d]imidazole-6-carboxylic acid] had an EC50 of 0.652 nM.
With `CC1(C)COC[C@H]1n1c(Cc2cc(F)c(-c3cccc(OCc4ccc(Cl)c(F)c4)n3)cc2F)nc2ccc(C(=O)O)cc21` [Example 394, (S)-2-(4-(6-((4-chloro-3-fluorobenzyl)oxy)pyridin-2-yl)-2,5-difluorobenzyl)-1-(4,4-dimethyltetrahydrofuran-3-yl)-1H-benzo[d]imidazole-6-carboxylic acid] the figure was 0.243 nM; with `CC1(C)COC[C@H]1n1c(Cc2cc(F)c(-c3ccc(F)c(OCc4ccc(C#N)cc4)n3)cc2F)nc2ccc(C(=O)O)nc21` [Example 396, (S)-2-(4-(6-((4-cyanobenzyl)oxy)-5-fluoropyridin-2-yl)-2,5-difluorobenzyl)-3-(4,4-dimethyltetrahydrofuran-3-yl)-3H-imidazo[4,5-b]pyridine-5-carboxylic acid], 0.157 nM; with `CC1(C)COC[C@H]1n1c(Cc2cc(F)c(-c3cccc(OCc4ccc(C#N)cc4)n3)cc2F)nc2cc(Cl)c(C(=O)O)cc21` [Example 397, (S)-5-chloro-2-(4-(6-((4-cyanobenzyl)oxy)pyridin-2-yl)-2,5-difluorobenzyl)-1-(4,4-dimethyltetrahydrofuran-3-yl)-1H-benzo[d]imidazole-6-carboxylic Acid], 0.546 nM.
The same measure for `CC1(C)COC[C@H]1n1c(Cc2cc(F)c(-c3ccc(F)c(OCc4ccc(Cl)cc4Cl)n3)cc2F)nc2ccc(C(=O)O)cc21` [Example 398, (S)-2-(4-(6-((2,4-dichlorobenzyl)oxy)-5-fluoropyridin-2-yl)-2,5-difluorobenzyl)-1-(4,4-dimethyltetrahydrofuran-3-yl)-1H-benzo[d]imidazole-6-carboxylic acid]: 0.217 nM; for `CC1(C)COC[C@H]1n1c(Cc2cc(F)c(-c3cccc(OCc4ccc(Cl)cc4Cl)n3)cc2F)nc2ccc(C(=O)O)cc21` [Example 399, (S)-2-(4-(6-((2,4-dichlorobenzyl)oxy)pyridin-2-yl)-2,5-difluorobenzyl)-1-(4,4-dimethyltetrahydrofuran-3-yl)-1H-benzo[d]imidazole-6-carboxylic acid]: 0.124 nM; for `CC1(C)COC[C@H]1n1c(Cc2cc(F)c(-c3cccc(OCc4ccc(Cl)cc4F)n3)cc2F)nc2cc(O)c(C(=O)O)cc21` [Example 400, (S)-2-(4-(6-((4-chloro-2-fluorobenzyl)oxy)pyridin-2-yl)-2,5-difluorobenzyl)-1-(4,4-dimethyltetrahydrofuran-3-yl)-5-hydroxy-1H-benzo[d]imidazole-6-carboxylic acid]: 0.44 nM.
With `CC1(C)COC[C@H]1n1c(Cc2cc(F)c(-c3cccc(OCc4ccc(C#N)cc4)n3)cc2F)nc2cc(O)c(C(=O)O)cc21` [Example 401, (S)-2-(4-(6-((4-cyanobenzyl)oxy)pyridin-2-yl)-2,5-difluorobenzyl)-1-(4,4-dimethyltetrahydrofuran-3-yl)-5-hydroxy-1H-benzo[d]imidazole-6-carboxylic acid] the figure was 0.247 nM; with `CC1(C)COC[C@H]1n1c(Cc2cc(F)c(-c3cccc(OCc4ccc(Cl)cc4F)n3)cc2F)nc2cc(Cl)c(C(=O)O)cc21` [Example 402, (S)-5-chloro-2-(4-(6-((4-chloro-2-fluorobenzyl)oxy)pyridin-2-yl)-2,5-difluorobenzyl)-1-(4,4-dimethyltetrahydrofuran-3-yl)-1H-benzo[d]imidazole-6-carboxylic acid], 0.561 nM.
Molecule `COCCn1c(Cc2c(F)cc(-c3cccc(OCc4ccc(-n5ccnn5)cc4Cl)n3)c(F)c2F)nc2ccc(C(=O)O)cc21` [Example 403, 2-(4-(6-((2-chloro-4-(1H-1,2,3-triazol-1-yl)benzyl)oxy)pyridin-2-yl)-2,3,6-trifluorobenzyl)-1-(2-methoxyethyl)-1H-benzo[d]imidazole-6-carboxylic acid] showed a concentration for a half-maximal effect (EC50) of 0.081 nM.
With `CC1(C)COC[C@H]1n1c(Cc2cc(F)c(-c3ccnc(OCc4ccc(Cl)cc4Cl)n3)cc2F)nc2c(F)cc(C(=O)O)cc21` [Example 404, (S)-2-(4-(2-((2,4-dichlorobenzyl)oxy)pyrimidin-4-yl)-2,5-difluorobenzyl)-1-(4,4-dimethyltetrahydrofuran-3-yl)-4-fluoro-1H-benzo[d]imidazole-6-carboxylic acid] the figure was 0.068 nM; with `CC1(C)COC[C@H]1n1c(Cc2cc(F)c(-c3nccc(OCc4ccc(Cl)cc4F)n3)cc2F)nc2ccc(C(=O)O)cc21` [Example 405, (S)-2-(4-(4-((4-chloro-2-fluorobenzyl)oxy)pyrimidin-2-yl)-2,5-difluorobenzyl)-1-(4,4-dimethyltetrahydrofuran-3-yl)-1H-benzo[d]imidazole-6-carboxylic acid], 0.337 nM.
For the molecule `O=C(O)c1ccc2nc(Cc3cc(F)c(-c4cccc(OCc5ccc(Cl)cc5F)n4)cc3F)n(C34COCC(C3)C4)c2c1` [Example 406, 1-(3-oxabicyclo[3.1.1]heptan-1-yl)-2-(4-(6-((4-chloro-2-fluorobenzyl)oxy)pyridin-2-yl)-2,5-difluorobenzyl)-1H-benzo[d]imidazole-6-carboxylic acid], a half-maximal effect (EC50) was put at 10.8 nM.
The same measure for `CC1(C)COC[C@H]1n1c(Cc2cc(F)c(-c3ncc(F)c(OCc4ccc(Cl)cc4F)n3)cc2F)nc2ccc(C(=O)O)cc21` [Example 410, (S)-2-(4-(4-((4-chloro-2-fluorobenzyl)oxy)-5-fluoropyrimidin-2-yl)-2,5-difluorobenzyl)-1-(4,4-dimethyltetrahydrofuran-3-yl)-1H-benzo[d]imidazole-6-carboxylic acid]: 0.349 nM.
